# What was measured:
# Mus musculus [1] = assay: Anticonvulsant activity in CF1 albino mouse assessed as inhibition of maximal electric shock-induced seizure at 300 mg/kg, ip after 4 hrs; type: functional; conditions: route intraperitoneal
# Mus musculus [2] = assay: Anticonvulsant activity in CF1 albino mouse assessed as inhibition of minimal clonic seizure at 30 mg/kg, ip after 2 hrs; type: functional; conditions: route intraperitoneal
# Mus musculus [3] = assay: Anticonvulsant activity in CF1 albino mouse assessed as inhibition of maximal electric shock-induced seizure at 300 mg/kg, ip after 0.5 hrs; type: functional; conditions: route intraperitoneal
# Rattus norvegicus [4] = assay: Anticonvulsant activity against kindle motor-induced seizure in rat assessed as after discharge duration at 100 mg/kg, ip after 15 mins by hippocampal kindling screen test; type: functional, Hippocampus; conditions: route intraperitoneal
# Mus musculus [5] = assay: Anticonvulsant activity in CF1 albino mouse assessed as inhibition of minimal clonic seizure at 100 mg/kg, ip after 0.25 hrs; type: functional; conditions: route intraperitoneal
# Rattus norvegicus [6] = assay: Anticonvulsant activity in Sprague-Dawley rat assessed as inhibition of maximal electric shock-induced seizure at 30 mg/kg, po after 0.25 hrs; type: functional
# Mus musculus [7] = assay: Anticonvulsant activity in CF1 albino mouse assessed as inhibition of minimal clonic seizure at 80 mg/kg, ip after 0.5 hrs; type: functional; conditions: route intraperitoneal
# Rattus norvegicus [8] = assay: Anticonvulsant activity in Sprague-Dawley rat assessed as inhibition of maximal electric shock-induced seizure at 30 mg/kg, po after 4 hrs; type: functional
# Mus musculus [9] = assay: Anticonvulsant activity in CF1 albino mouse assessed as inhibition of maximal electric shock-induced seizure at 100 mg/kg, ip after 4 hrs; type: functional; conditions: route intraperitoneal
# Rattus norvegicus [10] = assay: Anticonvulsant activity in Sprague-Dawley rat assessed as inhibition of maximal electric shock-induced seizure at 30 mg/kg, po after 0.5 hrs; type: functional
# Rattus norvegicus [11] = assay: Anticonvulsant activity against kindle motor-induced seizure in rat assessed as after discharge duration at 100 mg/kg, ip after 165 mins by hippocampal kindling screen test; type: functional, Hippocampus; conditions: route intraperitoneal
# Mus musculus [12] = assay: Anticonvulsant activity in CF1 albino mouse assessed as inhibition of minimal clonic seizure at 80 mg/kg, ip after 2 hrs; type: functional; conditions: route intraperitoneal
# Mus musculus [13] = assay: Neurotoxicity in CF1 albino mouse at 300 mg/kg, ip by rotarod test after 4 hrs; type: toxicity, organism-based; design: dose 300 mg/kg, route intraperitoneal; conditions: in vivo
# Rattus norvegicus [14] = assay: Anticonvulsant activity against kindle motor-induced seizure in rat assessed as after discharge duration at 100 mg/kg, ip after 195 mins by hippocampal kindling screen test; type: functional, Hippocampus; conditions: route intraperitoneal
# Rattus norvegicus [15] = assay: Anticonvulsant activity against kindle motor-induced seizure in rat assessed as after discharge duration at 100 mg/kg, ip after 255 mins by hippocampal kindling screen test; type: functional, Hippocampus; conditions: route intraperitoneal
# Rattus norvegicus [16] = assay: Anticonvulsant activity against kindle motor-induced seizure in rat assessed as after discharge duration at 100 mg/kg, ip after 135 mins by hippocampal kindling screen test; type: functional, Hippocampus; conditions: route intraperitoneal
# Mus musculus [17] = assay: Anticonvulsant activity in CF1 albino mouse assessed as inhibition of minimal clonic seizure at 80 mg/kg, ip after 4 hrs; type: functional; conditions: route intraperitoneal
# Mus musculus [18] = assay: Anticonvulsant activity in CF1 albino mouse assessed as inhibition of minimal clonic seizure at 100 mg/kg, ip after 4 hrs; type: functional; conditions: route intraperitoneal
# Mus musculus [19] = assay: Anticonvulsant activity in CF1 albino mouse assessed as inhibition of maximal electric shock-induced seizure at 30 mg/kg, ip after 4 hrs; type: functional; conditions: route intraperitoneal
# Rattus norvegicus [20] = assay: Anticonvulsant activity in Sprague-Dawley rat assessed as inhibition of maximal electric shock-induced seizure at 30 mg/kg, po after 1 hrs; type: functional
# Mus musculus [21] = assay: Anticonvulsant activity in CF1 albino mouse assessed as inhibition of minimal clonic seizure at 100 mg/kg, ip after 2 hrs; type: functional; conditions: route intraperitoneal
# Rattus norvegicus [22] = assay: Anticonvulsant activity against kindle motor-induced seizure in rat assessed as after discharge duration at 100 mg/kg, ip after 75 mins by hippocampal kindling screen test; type: functional, Hippocampus; conditions: route intraperitoneal
# Mus musculus [23] = assay: Anticonvulsant activity in CF1 albino mouse assessed as inhibition of minimal clonic seizure at 80 mg/kg, ip after 1 hrs; type: functional; conditions: route intraperitoneal
# Mus musculus [24] = assay: Anticonvulsant activity in CF1 albino mouse assessed as inhibition of minimal clonic seizure at 100 mg/kg, ip after 1 hrs; type: functional; conditions: route intraperitoneal
# Mus musculus [25] = assay: Anticonvulsant activity in CF1 albino mouse assessed as inhibition of maximal electric shock-induced seizure at 30 mg/kg, ip after 0.5 hrs; type: functional; conditions: route intraperitoneal
# Rattus norvegicus [26] = assay: Anticonvulsant activity against kindle motor-induced seizure in rat assessed as after discharge duration at 100 mg/kg, ip after 225 mins by hippocampal kindling screen test; type: functional, Hippocampus; conditions: route intraperitoneal
# Mus musculus [27] = assay: Anticonvulsant activity in CF1 albino mouse assessed as inhibition of minimal clonic seizure at 80 mg/kg, ip after 0.25 hrs; type: functional; conditions: route intraperitoneal
# Mus musculus [28] = assay: Anticonvulsant activity in CF1 albino mouse assessed as inhibition of maximal electric shock-induced seizure at 100 mg/kg, ip after 0.5 hrs; type: functional; conditions: route intraperitoneal
# Mus musculus [29] = assay: Anticonvulsant activity in CF1 albino mouse assessed as inhibition of minimal clonic seizure at 30 mg/kg, ip after 1 hrs; type: functional; conditions: route intraperitoneal
# Mus musculus [30] = assay: Anticonvulsant activity in CF1 albino mouse assessed as inhibition of minimal clonic seizure at 30 mg/kg, ip after 0.5 hrs; type: functional; conditions: route intraperitoneal
# Mus musculus [31] = assay: Anticonvulsant activity in CF1 albino mouse assessed as inhibition of minimal clonic seizure at 30 mg/kg, ip after 0.25 hrs; type: functional; conditions: route intraperitoneal
# Rattus norvegicus [32] = assay: Anticonvulsant activity against kindle motor-induced seizure in rat assessed as after discharge duration at 100 mg/kg, ip after 105 mins by hippocampal kindling screen test; type: functional, Hippocampus; conditions: route intraperitoneal
# Mus musculus [33] = assay: Anticonvulsant activity in CF1 albino mouse assessed as inhibition of minimal clonic seizure at 100 mg/kg, ip after 0.5 hrs; type: functional; conditions: route intraperitoneal
# Rattus norvegicus [34] = assay: Anticonvulsant activity against kindle motor-induced seizure in rat assessed as after discharge duration at 100 mg/kg, ip after 45 mins by hippocampal kindling screen test; type: functional, Hippocampus; conditions: route intraperitoneal
# Rattus norvegicus [35] = assay: Anticonvulsant activity in Sprague-Dawley rat assessed as inhibition of maximal electric shock-induced seizure at 30 mg/kg, po after 2 hrs; type: functional
# Mus musculus [36] = assay: Neurotoxicity in CF1 albino mouse at 100 mg/kg, ip by rotarod test; type: toxicity, organism-based; design: dose 100 mg/kg, route intraperitoneal; conditions: in vivo
# Rattus norvegicus [37] = assay: Neurotoxicity in Sprague-Dawley rat at 250 mg/kg, po by positional sense and gait and stance test; type: toxicity, organism-based; design: dose 250 mg/kg, route oral; conditions: in vivo
# Rattus norvegicus [38] = assay: Neurotoxicity in Sprague-Dawley rat at 500 mg/kg, po by positional sense and gait and stance test; type: toxicity, organism-based; design: dose 500 mg/kg, route oral; conditions: in vivo
smiles,measurement,setting,value
"Nc1ccc(Sc2ccc(N)cc2)cc1 [4,4'-THIODIANILINE]",inhibition in vivo at 300 mg/kg,Mus musculus [1],100%
same,inhibition in vivo at 30 mg/kg,Mus musculus [2],25%
same,inhibition in vivo at 300 mg/kg,Mus musculus [3],100%
same,Activity,Rattus norvegicus [4],19.14 s
same,inhibition in vivo at 100 mg/kg,Mus musculus [5],100%
same,inhibition in vivo at 30 mg/kg,Rattus norvegicus [6],100%
same,inhibition in vivo at 80 mg/kg,Mus musculus [7],100%
same,inhibition in vivo at 30 mg/kg,Rattus norvegicus [8],100%
same,inhibition in vivo at 100 mg/kg,Mus musculus [9],100%
same,inhibition in vivo at 30 mg/kg,Rattus norvegicus [10],100%
same,Activity,Rattus norvegicus [11],57.43 s
same,inhibition in vivo at 80 mg/kg,Mus musculus [12],75%
same,Activity,Mus musculus [13],Non-toxic
same,Activity,Rattus norvegicus [14],55.29 s
same,Activity,Rattus norvegicus [15],65.43 s
same,Activity,Rattus norvegicus [16],34.71 s
same,inhibition in vivo at 80 mg/kg,Mus musculus [17],0%
same,inhibition in vivo at 100 mg/kg,Mus musculus [18],0%
same,inhibition in vivo at 30 mg/kg,Mus musculus [19],0%
same,inhibition in vivo at 30 mg/kg,Rattus norvegicus [20],100%
same,inhibition in vivo at 100 mg/kg,Mus musculus [21],100%
same,Activity,Rattus norvegicus [22],24.86 s
same,inhibition in vivo at 80 mg/kg,Mus musculus [23],100%
same,inhibition in vivo at 100 mg/kg,Mus musculus [24],100%
same,inhibition in vivo at 30 mg/kg,Mus musculus [25],0%
same,Activity,Rattus norvegicus [26],71.29 s
same,inhibition in vivo at 80 mg/kg,Mus musculus [27],100%
same,inhibition in vivo at 100 mg/kg,Mus musculus [28],66%
same,inhibition in vivo at 30 mg/kg,Mus musculus [29],25%
same,inhibition in vivo at 30 mg/kg,Mus musculus [30],25%
same,inhibition in vivo at 30 mg/kg,Mus musculus [31],0%
same,Activity,Rattus norvegicus [32],33.29 s
same,inhibition in vivo at 100 mg/kg,Mus musculus [33],100%
same,Activity,Rattus norvegicus [34],25.29 s
same,inhibition in vivo at 30 mg/kg,Rattus norvegicus [35],100%
Nc1ccc(Nc2cccc(N)c2)cc1,inhibition in vivo at 300 mg/kg,Mus musculus [1],100%
same,inhibition in vivo at 300 mg/kg,Mus musculus [3],100%
same,inhibition in vivo at 30 mg/kg,Rattus norvegicus [6],0%
same,inhibition in vivo at 30 mg/kg,Rattus norvegicus [8],50%
same,Activity,Mus musculus [36],Non-toxic
same,inhibition in vivo at 100 mg/kg,Mus musculus [9],100%
same,inhibition in vivo at 30 mg/kg,Rattus norvegicus [10],50%
same,Activity,Rattus norvegicus [37],Non-toxic
same,inhibition in vivo at 30 mg/kg,Mus musculus [19],0%
same,inhibition in vivo at 30 mg/kg,Rattus norvegicus [20],75%
same,inhibition in vivo at 30 mg/kg,Mus musculus [25],0%
same,inhibition in vivo at 100 mg/kg,Mus musculus [28],100%
same,inhibition in vivo at 30 mg/kg,Rattus norvegicus [35],50%
Nc1ccc(NC(=O)c2ccc(N)cc2)cc1,inhibition in vivo at 300 mg/kg,Mus musculus [1],100%
same,inhibition in vivo at 300 mg/kg,Mus musculus [3],100%
same,inhibition in vivo at 30 mg/kg,Rattus norvegicus [6],50%
same,inhibition in vivo at 30 mg/kg,Rattus norvegicus [8],50%
same,Activity,Rattus norvegicus [38],Non-toxic
same,inhibition in vivo at 100 mg/kg,Mus musculus [9],0%
same,inhibition in vivo at 30 mg/kg,Rattus norvegicus [10],75%
same,inhibition in vivo at 30 mg/kg,Mus musculus [19],0%
same,inhibition in vivo at 30 mg/kg,Rattus norvegicus [20],50%
same,inhibition in vivo at 30 mg/kg,Mus musculus [25],0%
same,inhibition in vivo at 100 mg/kg,Mus musculus [28],66%
same,inhibition in vivo at 30 mg/kg,Rattus norvegicus [35],25%

# Source: ChEMBL document CHEMBL1155312, “In vivo evaluation of diaminodiphenyls: anticonvulsant agents with minimal acute neurotoxicity” (Bioorg Med Chem Lett, 2009)
